“Also recorded” adds a separate entry of the source. Like-named read-outs stand apart in the source and are kept apart here.
Experiments:
[1] = test system: SOX17 (endoderm marker) in RUES2-GLR cells; experiment: DevTox GLR-Endo assay: decrease in percent SOX17-positive cells (AEID 3094, Sox17_dn); details: for hit call designation (in words): DevTox GLR-Endo prediction against developmental toxicant classification; for Hit Call: Table S2, SOX17-positive cells, cutoff 3*bmad; for DevTox ACC: Table S2, percent SOX17-positive cells; for HIT−CALL: tcpl plot AEID3094, COFF 20.3; for DevTox % Max Inhibition: Table S2, percent SOX17-positive cells relative to DMSO; for MAX_MEAN: tcpl plot AEID3094, maximum mean response; for MAX_MED: tcpl plot AEID3094, maximum median response
Method in brief: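 Readouts are loss of SOX17-positive fraction and reduced cell number in endoderm-differentiating RUES2-GLR cells after 48 h of chemical exposure. Controls: undifferentiated and differentiated cells, 0.2% DMSO, and 1 µM SB431542; at least four biological replicates.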

[2] = test system: o/c ratio in H9 embryonic stem cells; details: Teratogen Index, cited from earlier work; for quickPredict TI: o/c ratio
[3] = test system: BRA (mesoderm marker) in RUES2-GLR cells; experiment: DevTox GLR-Endo assay: increase in percent BRA-positive cells (AEID 3096, Bra_up); assay type: cell-based, human; details: for HIT−CALL: tcpl plot AEID3096, COFF 0.774; for MAX_MEAN: tcpl plot AEID3096, maximum mean response; for MAX_MED: tcpl plot AEID3096, maximum median response
Procedure: (§1) The total test chemical incubation period was 48 h.
(§2) (Supplementary Materials).

[4] = test system: SOX17 (endoderm marker) in RUES2-GLR cells; experiment: DevTox GLR-Endo assay: increase in percent SOX17-positive cells (AEID 3093, Sox17_up); assay type: cell-based, human; details: for Emax: Homo sapiens; for HIT−CALL: tcpl plot AEID3093, COFF 20.3
Procedure: as §1, §2

H9 embryonic stem cells = details: cited from earlier work
[5] = test system: SOX2 (ectoderm and pluripotency marker) in RUES2-GLR cells; experiment: DevTox GLR-Endo assay: increase in percent SOX2-positive cells (AEID 3095, Sox2_up); details: for AC50 / Emax: Homo sapiens; for AC50: read-out: ga (winning model); for Emax: read-out: tp (winning model); for MAX_MEAN: tcpl plot AEID3095, maximum mean response; for MAX_MED: tcpl plot AEID3095, maximum median response;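 as to all read-outs here: cells exposed to test chemicals for 48 h in total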
RUES2-GLR cells = experiment: in vitro; details: for Emax: Homo sapiens, read-out: Cell Count % Max Inhibition; for Cell Count % Max Inhibition: Table S2, cell count relative to DMSO
[6] = cited from earlier work; for Development Toxicant Classification: Table S2; for Classification: developmental toxicant classification (Teratogen / Non-Teratogen) of reference and training chemicals, ref DOI per chemical: 10.1093/toxsci/kft239, 10.1093/toxsci/kfaa014, 10.1177/026119290203000204, 10.1038/s41598-020-59542-x; for DT Class.: developmental toxicant classification, chemicals common with quickPredict
[7] = Homo sapiens, read-out: DevTox % Max Inhibition
[8] = Homo sapiens, read-out: MAX_MEAN
[9] = Homo sapiens, read-out: MAX_MED
[10] = tcpl plot AEID3093, maximum mean response, read-out: MAX_MEAN
[11] = tcpl plot AEID3093, maximum median response, read-out: MAX_MED
[12] = concentration at cell viability cutoff
[13] = tcpl plot AEID3093, maximum mean response
[14] = tcpl plot AEID3093, maximum median response

In the case of `CN(Cc1cnc2nc(N)nc(N)c2n1)c1ccc(C(=O)N[C@@H](CCC(=O)O)C(=O)O)cc1` [Methotrexate], the “hit call designation (in words)” value [1] is reported as “borderline calls”, the Emax [1, 7] is reported as 24.6% and the Emax [1, 8] is reported as 22.4%. The Emax [1, 9] was 24.6%, the Emax ([1]; Homo sapiens, read-out: maximum observed effect level class (% max inhibition)) was 20 to 80% and the “Hit Call” value [1] was “Negative”. The “DevTox ACC” value ([1]; 48 h exposure) was over 200 µM, the “HIT−CALL” value [1] was 0 and the “quickPredict TI” value [2] was 0.059 µM. For the same compound, the “HIT−CALL” value [3] was 1, the MAX_MEAN [3] was 1.26 Percent Activity and the MAX_MED [3] was 1.19 Percent Activity. The Emax [4, 10] was 2.23%, the Emax [4, 11] was 2.87% and the “HIT−CALL” value [4] was 0. The “quickPredict CV” value (H9 embryonic stem cells; [12]) was 0.062 µM, the AC50 [5] was 0.0525 µM and the Emax [5] was 0.771%. For the same compound, the MAX_MEAN [5] was 0.917 Percent Activity, the MAX_MED [5] was 0.899 Percent Activity and the “effect on cell count (in words)” value (RUES2-GLR cells) was “significant decreases in cell count”. For the same compound, the Emax (RUES2-GLR cells) was 44.6%, the “Cell Count ACC” value (RUES2-GLR cells; human, 48 h) was 0.3474 µM and the “DevTox-GLR Endo CC” value (RUES2-GLR cells; human, 48 h) was 0.35 µM. For the same compound, the “effect on cell count (in words)” value (RUES2-GLR cells; human, 48 h) was “significant cell loss that did not impact SOX17-positive populations”, the “Development Toxicant Classification” value [6] was “Positive” and the Classification [6] was “Teratogen”. For the same compound, the “DT Class.” value [6] was “Pos”.
For `CC(O)CO` (stereo not shown) [1,2-Propylene glycol], the “Hit Call” value [1] was “Negative”, the “DevTox % Max Inhibition” value [1] was 5.484% and the “DevTox ACC” value ([1]; 48 h exposure) was over 200 µM. For the same compound, the “HIT−CALL” value [1] was 0, the MAX_MEAN [1] was 3.45 Percent Activity and the MAX_MED [1] was 5.48 Percent Activity. For the same compound, the “quickPredict TI” value [2] was 327552 µM, the “quickPredict TI (µM)” value [2] was 327,552 µM and the “HIT−CALL” value [3] was 0. For the same compound, the MAX_MEAN [3] was 0.919 Percent Activity, the MAX_MED [3] was 0.955 Percent Activity and the “HIT−CALL” value [4] was 0. For the same compound, the MAX_MEAN [4, 13] was 8.27 Percent Activity, the MAX_MED [4, 14] was 7.58 Percent Activity and the “quickPredict CV” value (H9 embryonic stem cells; cell viability) was 246664 µM. The “quickPredict CV (µM)” value (H9 embryonic stem cells; [12]) was 246,664 µM, the MAX_MEAN [5] was 0.616 Percent Activity and the MAX_MED [5] was 0.577 Percent Activity. The “Cell Count ACC” value (RUES2-GLR cells; Table S2, 48 h exposure) was over 200 µM, the “Cell Count % Max Inhibition” value (RUES2-GLR cells) was 12.9966% and the “Development Toxicant Classification” value [6] was “Negative”. The Classification [6] was “Non-Teratogen” and the “DT Class.” value [6] was “Neg”.
With `NC(=O)NO` [Hydroxyurea] the “hit call designation (in words)” value [1] was “false negative”, the “Hit Call” value [1] was “Negative” and the “DevTox % Max Inhibition” value [1] was 15.8672%. The “DevTox ACC” value ([1]; 48 h exposure) was over 200 µM, the “maximum observed effect level class (% max inhibition)” value ([1]; stratification of training set chemicals) was “weak (weak (0–20% max inhibition))” and the “HIT−CALL” value [1] was 0. For the same compound, the MAX_MEAN [1] was 17.2 Percent Activity, the MAX_MED [1] was 15.9 Percent Activity and the “quickPredict TI” value [2] was 74.9 µM. For the same compound, the “HIT−CALL” value [3] was 0, the MAX_MEAN [3] was 0.733 Percent Activity and the MAX_MED [3] was 0.69 Percent Activity. The “HIT−CALL” value [4] was 0, the MAX_MEAN [4, 13] was 13.7 Percent Activity and the MAX_MED [4, 14] was 16 Percent Activity. The “quickPredict CV” value (H9 embryonic stem cells; [12]) was 237 µM, the MAX_MEAN [5] was 1.5 Percent Activity and the MAX_MED [5] was 0.557 Percent Activity. For the same compound, the “Cell Count ACC” value (RUES2-GLR cells; Table S2, 48 h exposure) was 64.5432 µM, the “Cell Count % Max Inhibition” value (RUES2-GLR cells) was 34.555% and the “DevTox-GLR Endo CC” value (RUES2-GLR cells; concentration at cell count cutoff, 48 h exposure) was 64.54 µM. For the same compound, the “effect on cell count (in words)” value (RUES2-GLR cells; training set, 48 h exposure) was “significant cell loss that did not impact SOX17-positive populations; also recorded: significant decreases in cell count”, the “Development Toxicant Classification” value [6] was “Positive” and the Classification [6] was “Teratogen”. The “DT Class.” value [6] was “Pos”.
Work on `CS(=O)(=O)OCCCCOS(C)(=O)=O` [Busulfan] yielded an Emax [1, 7] of 100%, an Emax [1, 8] of 100% and an Emax [1, 9] of 100%. The AC50 ([1]; Homo sapiens, read-out: ga (winning model), tcpl plot AEID3094, gain parameter of winning curve fit (log concentration, µM axis), hit calls only (converted)) was 38.9 µM, the Emax ([1]; Homo sapiens, read-out: tp (winning model)) was 101% and the “Hit Call” value [1] was “Positive”. For the same compound, the “DevTox ACC” value ([1]; 48 h exposure) was 25.262 µM, the “DevTox-GLR Endo ACC” value ([1]; activity concentration at cutoff, SOX17-positive cells, 48 h exposure) was 25.26 µM and the “HIT−CALL” value [1] was 1. For the same compound, the “quickPredict TI” value [2] was 2.31 µM, the “HIT−CALL” value [3] was 0 and the MAX_MEAN [3] was 2.12 Percent Activity. The MAX_MED [3] was 2.19 Percent Activity, the Emax [4, 10] was 7.27% and the Emax [4, 11] was 12.6%. For the same compound, the “HIT−CALL” value [4] was 0, the “quickPredict CV” value (H9 embryonic stem cells; [12]) was 4.91 µM and the AC50 [5] was 145 µM. For the same compound, the Emax [5] was 4.09%, the MAX_MEAN [5] was 2.43 Percent Activity and the MAX_MED [5] was 2.59 Percent Activity. For the same compound, the “effect on cell count (in words)” value (RUES2-GLR cells) was “significant decreases in cell count”, the Emax (RUES2-GLR cells) was 82.3% and the “Cell Count ACC” value (RUES2-GLR cells; human, 48 h) was 5.795 µM. For the same compound, the “DevTox-GLR Endo CC” value (RUES2-GLR cells; human, 48 h) was 5.79 µM, the “Development Toxicant Classification” value [6] was “Positive” and the Classification [6] was “Teratogen”. For the same compound, the “DT Class.” value [6] was “Pos”.
`O=C(O)c1ccccc1O` [Salicylic Acid] showed an Emax [1, 7] of 6.91%, an Emax [1, 8] of 7.1% and an Emax [1, 9] of 6.91%. For the same compound, the “Hit Call” value [1] was “Negative”, the “DevTox ACC” value ([1]; 48 h exposure) was over 200 µM and the “HIT−CALL” value [1] was 0. For the same compound, the “quickPredict TI” value [2] was 513 µM, the “HIT−CALL” value [3] was 0 and the MAX_MEAN [3] was 0.835 Percent Activity. For the same compound, the MAX_MED [3] was 0.894 Percent Activity, the Emax [4, 10] was 8.74% and the Emax [4, 11] was 9.69%. The “HIT−CALL” value [4] was 0, the “quickPredict CV” value (H9 embryonic stem cells; [12]) was 1795 µM and the MAX_MEAN [5] was 0.533 Percent Activity. The MAX_MED [5] was 0.494 Percent Activity, the Emax (RUES2-GLR cells) was 11.5% and the “Cell Count ACC” value (RUES2-GLR cells; human, 48 h) was over 200 µM. The Classification [6] was “Non-Teratogen” and the “DT Class.” value [6] was “Neg”.
